Like-named read-outs stand apart in the source and are kept apart here.
Tests used:
[1] = system: HCV genotype 1b (Con1) replicon in HUH-7 cells; test: HCV replicon luciferase reporter assay, genotype 1b; assay type: cell-based; details: Hepatitis C virus, Huh-7, 72 h, 3 days incubation
In short: (§1)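 Replicon inhibition for both genotypes was measured as Renilla luciferase signal (EnduRen, 7.5 μM final, 2 h) after 3-day, 37° C exposure of replicon-bearing HUH-7 cells in 4% FCS DMEM, 0.5% DMSO. The 1b construct carries S1179I; the 1a H77 construct carries P1496L and S2204I. Twenty-point, 3-fold dilutions were fitted four-parametrically for EC50, and CC50 was taken from multiplexed Cell Titer-Blue.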

[2] = system: HCV genotype 1a (H77 strain) replicon in HUH-7 cells; test: HCV replicon luciferase reporter assay, genotype 1a; assay type: cell-based; details: Hepatitis C virus, Huh-7, 72 h, 3 days incubation
In short: as §1

[3] = HCV genotype 1b replicon luciferase assay, range class, read-out: LE_1b (EC50, range)
[4] = HCV genotype 1a replicon luciferase assay, range class, read-out: LE_1a (EC50, range)
[5] = HCV genotype 1b replicon luciferase, read-out: LE_1b (EC50, range)
[6] = HCV genotype 1a replicon luciferase, read-out: LE_1a (EC50, range)
[7] = GETYPE1B, HCV genotype 1b replicon luciferase, read-out: LE_1b (EC50, range)
[8] = GETYPE1A, HCV genotype 1a replicon luciferase, read-out: LE_1a (EC50, range)

Compound | EC50 [1, 5] | EC50 [2, 6] | further results
COc1ccc2c(O[C@@H]3C[C@H]4C(=O)N[C@]5(C(=O)NS(=O)(=O)C6(C)CC6)C[C@H]5/C=C\CC[C@@H](C)C[C@@H](C)[C@H](NC(=O)O[C@H](C)C(F)(F)F)C(=O)N4C3)nc(N(C)C)cc2c1 [Compound 3113, (R)-1,1,1-trifluoropropan-2-yl ((2R,6S,7R,9R,13aS,14aR,16aS,Z)-2-((3-(dimethylamino)-6-methoxyisoquinolin-1-yl)oxy)-7,9-dimethyl-14a-(((1-methylcyclopropyl)sulfonyl)carbamoyl)-5,16-dioxo-1,2,3,5,6,7,8,9,10,11,13a,14,14a,15,16,16a-hexadecahydrocyclopropa[e]pyrrolo[1,2-a][1,4]diazacyclopentadecin-6-yl)carbamate] | – | – | EC50 [1, 3]: 4.82 to 103 nM; EC50 [2, 4]: < 5.46 nM
COc1ccc2ncc(O[C@@H]3C[C@H]4C(=O)N[C@]5(C(=O)NS(=O)(=O)C6(C)CC6)C[C@H]5/C=C\CC[C@@H](C)C[C@@H](C)[C@H](NC(=O)OC(C)(C)C)C(=O)N4C3)nc2c1 [Compound 4086, tert-butyl (2R,6S,7R,9R,13aS,14aR,16aS,Z)-2-(7-methoxyquinoxalin-2-yloxy)-7,9-dimethyl-14a-(1-methylcyclopropylsulfonylcarbamoyl)-5,16-dioxo-1,2,3,5,6,7,8,9,10,11,13a,14,14a,15,16,16a-hexadecahydrocyclopropa[e]pyrrolo[1,2-a][1,4]diazacyclopentadecin-6-ylcarbamate] | < 5.46 nM | < 5.46 nM | –
CC[C@@H]1C[C@H](C)CC/C=C\[C@@H]2C[C@@]2(C(=O)NS(=O)(=O)C2(C)CC2)NC(=O)[C@@H]2C[C@@H](Oc3nc4c(c5cc(OC)c(F)cc35)CCCO4)CN2C(=O)[C@H]1NC(=O)OC(C)(C)C(F)(F)F [Compound 1197] | – | – | EC50 [1, 7]: 0.51 to 1 nM; EC50 [2, 8]: 1.01 to 5 nM
CC[C@@H]1C[C@H](C)CC/C=C\[C@@H]2C[C@@]2(C(=O)NS(=O)(=O)C2CC2)NC(=O)[C@@H]2C[C@@H](Oc3nc4cc(OC)ccc4nc3C(F)(F)F)CN2C(=O)[C@H]1NC(=O)OC(C)(C)C(F)(F)F [Compound 4263] | – | – | EC50 [1, 7]: 0.51 to 1 nM; EC50 [2, 8]: 1.01 to 5 nM
COc1ccc2c(O[C@@H]3C[C@H]4C(=O)N[C@]5(C(=O)NS(=O)(=O)C6(C)CC6)C[C@H]5/C=C\CC[C@@H](C)C[C@@H](C)[C@H](NC(=O)c5ccc(N(C)C)cc5)C(=O)N4C3)nccc2c1 [Compound 5181, (2R,6S,7R,9R,13aS,14aR,16aS,Z)-6-(4-(dimethylamino)benzamido)-2-((6-methoxyisoquinolin-1-yl)oxy)-7,9-dimethyl-N-((1-methylcyclopropyl)sulfonyl)-5,16-dioxo-1,2,3,5,6,7,8,9,10,11,13a,14,14a,15,16,16a-hexadecahydrocyclopropa[e]pyrrolo[1,2-a][1,4]diazacyclopentadecine-14a-carboxamide] | < 5.46 nM | < 5.46 nM | –
CCOc1cc2ccnc(O[C@@H]3C[C@H]4C(=O)N[C@]5(C(=O)NS(=O)(=O)C6(C)CC6)C[C@H]5/C=C\CC[C@@H](C)C[C@@H](C)[C@H](NC(=O)OC(C)(C)C)C(=O)N4C3)c2cc1F [Compound 5393, tert-butyl ((2R,6S,7R,9R,13aS,14aR,16aS,Z)-2-((6-ethoxy-7-fluoroisoquinolin-1-yl)oxy)-7,9-dimethyl-14a-(((1-methylcyclopropyl)sulfonyl)carbamoyl)-5,16-dioxo-1,2,3,5,6,7,8,9,10,11,13a,14,14a,15,16,16a-hexadecahydrocyclopropa[e]pyrrolo[1,2-a][1,4]diazacyclopentadecin-6-yl)carbamate] | 0.51 to 1 nM | 0.51 to 1 nM | EC50 ([1]; HCV genotype 1b replicon luciferase, read-out: LE_1b (EC50)): 0.55 nM; EC50 ([2]; HCV genotype 1a replicon luciferase, read-out: LE_1a (EC50)): 0.92 nM
CC[C@@H]1C[C@H](C)CC/C=C\[C@@H]2C[C@@]2(C(=O)NS(=O)(=O)C2CC2)NC(=O)[C@@H]2C[C@@H](Oc3nccc4c5c(ccc34)N(C)CCO5)CN2C(=O)[C@H]1NC(=O)OC(C)(C)C [Compound 5308, tert-butyl ((2R,6S,7R,9R,13aS,14aR,16aS,Z)-14a-((cyclopropylsulfonyl)carbamoyl)-7-ethyl-9-methyl-2-((4-methyl-3,4-dihydro-2H-[1,4]oxazino[2,3-f]isoquinolin-7-yl)oxy)-5,16-dioxo-1,2,3,5,6,7,8,9,10,11,13a,14,14a,15,16,16a-hexadecahydrocyclopropa[e]pyrrolo[1,2-a][1,4]diazacyclopentadecin-6-yl)carbamate] | < 5.46 nM | < 5.46 nM | –
COc1ccc2c(O[C@@H]3C[C@H]4C(=O)N[C@]5(C(=O)NS(=O)(=O)C6(F)CC6)C[C@H]5/C=C\CC[C@@H](C)C[C@@H](C)[C@H](NC(=O)OC5CCCCC5)C(=O)N4C3)nccc2c1 [Compound 4037] | < 5.46 nM | < 5.46 nM | –
COc1ccc2c(O[C@@H]3C[C@H]4C(=O)N[C@]5(C(=O)NS(=O)(=O)C6(C)CC6)C[C@H]5/C=C\CC[C@H](C)C[C@@H](C)[C@H](NC(=O)OC(C)(C)C(F)(F)F)C(=O)N4C3)nc(-c3ccc(N4CCOCC4)cc3)cc2c1 [Compound 5198, 1,1,1-trifluoro-2-methylpropan-2-yl((2R,6S,7R,9S,13aS,14aR,16aS,Z)-2-((6-methoxy-3-(4-morpholinophenyl)isoquinolin-1-yl)oxy)-7,9-dimethyl-14a-(((1-methylcyclopropyl)sulfonyl)carbamoyl)-5,16-dioxo-1,2,3,5,6,7,8,9,10,11,13a,14,14a,15,16,16a-hexadecahydrocyclopropa[e]pyrrolo[1,2-a][1,4]diazacyclopentadecin-6-yl)carbamate] | < 5.46 nM | 4.82 to 103 nM | –
COc1cnc(O[C@@H]2C[C@H]3C(=O)N[C@]4(C(=O)NS(=O)(=O)C5(F)CC5)C[C@H]4/C=C\CC[C@@H](C)C[C@@H](C)[C@H](NC(=O)OC(C)(C)C)C(=O)N3C2)c2cc(F)ccc12 [Compound 4045, tert-butyl (2R,6S,7R,9R,13aS,14aR,16aS,Z)-2-(7-fluoro-4-methoxyisoquinolin-1-yloxy)-14a-(1-fluorocyclopropylsulfonylcarbamoyl)-7,9-dimethyl-5,16-dioxo-1,2,3,5,6,7,8,9,10,11,13a,14,14a,15,16,16a-hexadecahydrocyclopropa[e]pyrrolo[1,2-a][1,4]diazacyclopentadecin-6-ylcarbamate] | < 5.46 nM | < 5.46 nM | –
CC(C)Oc1ccc2c(O[C@@H]3C[C@H]4C(=O)N[C@]5(C(=O)NS(=O)(=O)C6(C)CC6)C[C@H]5/C=C\CC[C@@H](C)C[C@@H](C)[C@H](NC(=O)OC(C)(C)C)C(=O)N4C3)nccc2c1 [Compound 5157, tert-butyl ((2R,6S,7R,9R,13aS,14aR,16aS,Z)-2-((6-isopropoxyisoquinolin-1-yl)oxy)-7,9-dimethyl-14a-(((1-methylcyclopropyl)sulfonyl)carbamoyl)-5,16-dioxo-1,2,3,5,6,7,8,9,10,11,13a,14,14a,15,16,16a-hexadecahydrocyclopropa[e]pyrrolo[1,2-a][1,4]diazacyclopentadecin-6-yl)carbamate] | < 5.46 nM | < 5.46 nM | –
COc1cnc(O[C@@H]2C[C@H]3C(=O)N[C@]4(C(=O)NS(=O)(=O)C5(CF)CC5)C[C@H]4/C=C\CC[C@@H](C)C[C@@H](C)[C@H](NC(=O)OC4(C(F)(F)F)CCOC4)C(=O)N3C2)c2ccccc12 (stereo partly drawn) [Compound 1066, 3-(trifluoromethyl)tetrahydrofuran-3-yl((2R,6S,7R,9R,13aS,14aR,16aS,Z)-14a-(((1-(fluoromethyl)cyclopropyl)sulfonyl)carbamoyl)-2-((4-methoxyisoquinolin-1-yl)oxy)-7,9-dimethyl-5,16-dioxo-1,2,3,5,6,7,8,9,10,11,13a,14,14a,15,16,16a-hexadecahydrocyclopropa[e]pyrrolo[1,2-a][1,4]diazacyclopentadecin-6-yl)carbamate] | – | – | EC50 [1, 3]: < 5.46 nM; EC50 [2, 4]: < 5.46 nM
CC[C@@H]1C[C@@H](C)CC/C=C\[C@@H]2C[C@@]2(C(=O)NS(=O)(=O)C2(C)CC2)NC(=O)[C@@H]2C[C@@H](Oc3nc(OC)cc4cc(OC)ccc34)CN2C(=O)[C@H]1NC(=O)OC(C)(C)C(F)(F)F [Compound 1119, 1,1,1-trifluoro-2-methylpropan-2-yl((2R,6S,7R,9S,13aS,14aR,16aS,Z)-2-((3,6-dimethoxyisoquinolin-1-yl)oxy)-7-ethyl-9-methyl-14a-(((1-methylcyclopropyl)sulfonyl)carbamoyl)-5,16-dioxo-1,2,3,5,6,7,8,9,10,11,13a,14,14a,15,16,16a-hexadecahydrocyclopropa[e]pyrrolo[1,2-a][1,4]diazacyclopentadecin-6-yl)carbamate] | – | – | EC50 [1, 3]: < 5.46 nM; EC50 [2, 4]: < 5.46 nM
C[C@@H]1CC/C=C\[C@@H]2C[C@@]2(C(=O)NS(=O)(=O)C2(C)CC2)NC(=O)[C@@H]2C[C@@H](Oc3nccc4c5c(ccc34)OCCO5)CN2C(=O)[C@@H](NC(=O)OC(C)(C)C)[C@H](C)C1 [Compound 5245, tert-butyl ((2R,6S,7R,9R,13aS,14aR,16aS,Z)-2-((2,3-dihydro-[1,4]dioxino[2,3-f]isoquinolin-7-yl)oxy)-7,9-dimethyl-14a-(((1-methylcyclopropyl)sulfonyl)carbamoyl)-5,16-dioxo-1,2,3,5,6,7,8,9,10,11,13a,14,14a,15,16,16a-hexadecahydrocyclopropa[e]pyrrolo[1,2-a][1,4]diazacyclopentadecin-6-yl)carbamate] | < 5.46 nM | < 5.46 nM | –

— patent publication US9499550B2 (BRISTOL-MYERS SQUIBB COMPANY, priority 2012, dated 2016)
